Measurements: US20210267865A1, “COSMETIC COMPOSITION FOR INCREASING SKIN EXFOLIATION” (LG HOUSEHOLD & HEALTH CARE LTD., priority 2018, published 2021)

Legend:
pig skin = assay: Evaluation of pig skin exfoliation (number of exfoliated cells from biopsied pig skin); settings: for activity versus gluconolactone (PHA) or lactic acid (AHA) at pH 4: neutral or weakly acidic pH of 5-7
Description: The exfoliation evaluation method described in Journal of the European Academy of Dermatology and Venereology, 2014, 28, 415-423 was used. Specifically, pig skin was biopsied and a sample to be tested was added. Then, the number of exfoliated cells was measured with a cell counter and was plotted with water as a negative control group (0%) and 10% gluconolactone at pH 4 as a positive control group (100%).

[1] = system: stratum corneum of inside forearm and upper arm; assay: Evaluation of exfoliation turnover enhancement by DHA staining (human skin test); assay type: in vivo; settings: for turnover time (TT100): polyol humectant content 10% or 50%, non-application group 20 days
Description: DHA staining for evaluating the speed of exfoliation turnover was conducted for 10 healthy males aged between 20 and 40 years according to the method described in Dermatology 1993, 186, 133-137. Prior to sample application, the color of the inside forearm and upper arm of the test subjects was measured with Chroma Meter. Then, a 1.5×1.5 cm gauze soaked with about 0.4 mL of 10% dihydroxyacetone (DHA) was attached to the inside forearm and upper arm for 8 hours. 48 hours later, the color of the part that was pigmented brown by DHA was compared with that before the sample application. Subsequently, while applying the sample twice a day, the time required to return to the original skin color was measured by measuring the skin color every day with Chroma Meter. TT (turnover time) 100% means the time required for the existing stratum corneum to be completely (100%) replaced with a new stratum corneum. In this experiment, the time required for the skin pigmented by DHA corneum to completely return to the original color was compared by regression analysis. The result was compared with that of the negative control group (20 days).

[2] = with glycerin, dipropylene glycol or 1,3-butylene glycol, polyol humectant content exceeding 10 wt %

Which results are given for `N[C@@H](CO)C(=O)O` [Serine, serine]?
exfoliating effect (pig skin; 5% serine with humectant mixtures (glycerin 1:DPG 1:1,3-BG 1) (FIG. 6)): decreased similarly; exfoliation effect (pig skin; 5% serine, pH 6, concentration of glycerin 10% or higher (FIG. 1)): 0%; exfoliation activity (pig skin; 5% serine, pH 6, dipropylene glycol or 1,3-butylene glycol exceeding 10% (FIGS. 3 and 4)): decreased below that of water (negative control group); activity versus gluconolactone (PHA) or lactic acid (AHA) at pH 4 (pig skin): comparable to or better than; Exfoliation ability % (pig skin; serine 0.5 wt %, glycerin 0 wt %): 56%; Exfoliation ability % (pig skin; serine 0.5 wt %, glycerin 0.5 wt %): 53%; Exfoliation ability % (pig skin; serine 0.5 wt %, glycerin 1 wt %): 34%; Exfoliation ability % (pig skin; serine 0.5 wt %, glycerin 5 wt %): 19%; Exfoliation ability % (pig skin; serine 0.5 wt %, glycerin 10 wt %): 13%; Exfoliation ability % (pig skin; serine 5 wt %, glycerin 0 wt %): 91%; Exfoliation ability % (pig skin; serine 5 wt %, glycerin 0.1 wt %): 85%; Exfoliation ability % (pig skin; serine 5 wt %, glycerin 0.5 wt %): 86%; Exfoliation ability % (pig skin; serine 5 wt %, glycerin 1 wt %): 59%; Exfoliation ability % (pig skin; serine 5 wt %, glycerin 2 wt %): 47%; Exfoliation ability % (pig skin; serine 5 wt %, glycerin 3 wt %): 23%; Exfoliation ability % (pig skin; serine 5 wt %, glycerin 4 wt %): 26%; Exfoliation ability % (pig skin; serine 5 wt %, glycerin 5 wt %): 21%; Exfoliation ability % (pig skin; serine 5 wt %, glycerin 7 wt %): 16%; Exfoliation ability % (pig skin; serine 5 wt %, glycerin 10 wt %): 16%; Exfoliation ability % (pig skin; serine 5 wt %, glycerin 12 wt %): −2%; Exfoliation ability % (pig skin; serine 5 wt %, glycerin 15 wt %): −5%; exfoliation effect (pig skin; [2]): 0%; decrease of TT100% versus non-application group ([1]; 5% serine, applied twice a day): 6 days; TT100% (turnover time) ([1]; 5% serine, applied twice a day, non-application group 20 days (FIG. 13)): 14 days; turnover time (TT100) [1]: no significant difference; visual change after application for 10 days ([1]; serine alone at concentrations of 0.5% and 5% (FIG. 12)): effective; visual change after application for 10 days ([1]; serine with glycerin concentration 10% or 50% (FIG. 12)): no significant difference from the non-application group; TT100% (turnover time) ([1]; serine with glycerin concentration 10% or 50% (FIG. 13)): no significant difference from the non-application group

How did the exfoliation effect (pig skin; 5% carnitine, pH 7, concentration of glycerin higher than 10 wt % (FIG. 2)) turn out when `C[N+](C)(C)CC(O)CC(=O)[O-]` (centres unmarked) [Carnitine, carnitine] was run?
The exfoliation effect was 0%.

What about the exfoliation activity (pig skin; 5% carnitine, pH 7, with 10% or 12% glycerin, dipropylene glycol or 1,3-butylene glycol (FIG. 5)) of the same compound?
Its exfoliation activity is “decreased to the levels where human skin test is meaningless”.

What about the Exfoliation ability % (pig skin; carnitine 0.5 wt %, glycerin 0 wt %) of the same compound?
The Exfoliation ability % was 61%.

What about the Exfoliation ability % (pig skin; carnitine 0.5 wt %, glycerin 0.5 wt %) of the same compound?
Its Exfoliation ability % is 50%.

What about the Exfoliation ability % (pig skin; carnitine 0.5 wt %, glycerin 1 wt %) of the same compound?
Its Exfoliation ability % is 18%.

What about the Exfoliation ability % (pig skin; carnitine 0.5 wt %, glycerin 5 wt %) of the same compound?
The Exfoliation ability % was 11%.

What about the Exfoliation ability % (pig skin; carnitine 0.5 wt %, glycerin 10 wt %) of the same compound?
The Exfoliation ability % was 0%.

What about the Exfoliation ability % (pig skin; carnitine 5 wt %, glycerin 0 wt %) of the same compound?
The Exfoliation ability % was 100%.

What about the Exfoliation ability % (pig skin; carnitine 5 wt %, glycerin 0.1 wt %) of the same compound?
The Exfoliation ability % was 89%.

What about the Exfoliation ability % (pig skin; carnitine 5 wt %, glycerin 0.5 wt %) of the same compound?
The Exfoliation ability % was 91%.

What about the Exfoliation ability % (pig skin; carnitine 5 wt %, glycerin 1 wt %) of the same compound?
The Exfoliation ability % was 55%.

What about the Exfoliation ability % (pig skin; carnitine 5 wt %, glycerin 2 wt %) of the same compound?
The Exfoliation ability % was 53%.

What about the Exfoliation ability % (pig skin; carnitine 5 wt %, glycerin 3 wt %) of the same compound?
The Exfoliation ability % was 30%.

What about the Exfoliation ability % (pig skin; carnitine 5 wt %, glycerin 4 wt %) of the same compound?
The Exfoliation ability % was 19%.

And the Exfoliation ability % (pig skin; carnitine 5 wt %, glycerin 5 wt %)?
Its Exfoliation ability % is 12%.

What about the Exfoliation ability % (pig skin; carnitine 5 wt %, glycerin 7 wt %) of the same compound?
The Exfoliation ability % was 5%.

And the Exfoliation ability % (pig skin; carnitine 5 wt %, glycerin 10 wt %)?
The Exfoliation ability % was 4%.

And the Exfoliation ability % (pig skin; carnitine 5 wt %, glycerin 12 wt %)?
Its Exfoliation ability % is 0%.

And the Exfoliation ability % (pig skin; carnitine 5 wt %, glycerin 15 wt %)?
Its Exfoliation ability % is 0%.

What about the “activity versus gluconolactone (PHA) or lactic acid (AHA) at pH 4” value (pig skin) of the same compound?
Its value is “comparable to or better than”.

What about the exfoliation effect (pig skin; [2]) of the same compound?
The exfoliation effect was 0%.

And the “turnover time (TT100)” value [1]?
The value was “no significant difference”.
